The text below walks through data of patent publication US7528175B2, “Method of treating airway diseases with beta-adrenergic inverse agonists” (Inverseon, Inc., priority 2005, dated 2009).

The test system of series [1] is adults with mild asthma. The experiment in a line: Phase IIa clinical trial of chronic oral nadolol, tolerability and cardiovascular function. Particulars: for Heart rate at 4 hrs after administration of dose: subject 003, 80 mg.
Source text: (§1) Study Design: The study is an open-label Phase IIa, proof of principle, 11-week, dose escalation study in mild asthma. Up to twelve subjects with mild asthma, not taking inhaled corticosteroids or other controller medications are to be recruited from a single clinical research center. […] Combivent rescue medication was provided to subjects during the run-in period to replace their own rescue medication which typically is Albuterol (salbutamol a beta 2 partial agonist).
(§2) The subjects are maintained at their maximum tolerated dose for a minimum of 4 weeks.
(§3) All the following criteria had to be met for dose escalation otherwise the dose was kept at maintenance level (same dose), reduced to previous lower tolerated dose or the subject was terminated from the study.
(§4) Data collected at baseline and during study visits include lung function (spirometry—FEV1 and daily peak flow rates —PEFR), asthma symptoms via dairy cards), heart rate and blood pressure. In addition, airway hyper-responsiveness (methacholine challenge test—PC20) and Asthma Control Questionaire (Juniper ACQ) will be performed. Blood is collected to monitor beta adrenergic receptor levels in lymphocytes and baseline laboratory evaluation.
The test system of series [2] is adults with mild asthma. As to conditions: human, in vivo.
Source text: as §1, §2, §3, §4
Series [3] relates to asthmatic mice. As to conditions: Callaerts-Vegh et al. 2004, cited from earlier work.
In the next series the test system is interleukin 10 (IL-10). Kind of series: IL-10 levels in BALF. It counts as in vivo, mice. As for the experimental part: Bronchial alveolar lavage fluid was collected from treated animals and total immune cell number was determined and the total number of eosinophils was also determined. Additionally, the interleukin 10 (IL-10) levels were determined in the mice.

Series [4] has as its system asthmatic mice. The experiment in a line: BALF cell number and type (Example 11). It is filed as in vivo. Particulars: vs nontreated asthmatic mice. An excerpt: The same mice as described in Example 1 underwent bronchoalveolar lavage (BAL) to determine the total number and type of immune system cells in the lung. BAL Fluid (BALF) was irrigated and collected from the lungs of mice as previously described (Evans K L, Bond R A, Corry […]. Frequency dependence of respiratory system mechanics during induced constriction in a murine model of asthma. J Appl Physiol. 2003 January;94(1):245-52). […] The number of neutrophils was increased in nontreated asthmatic mice compared to mice that served as controls for chronic beta-blocker treatments. In comparison to their notable effects on airway responsiveness, the β-AR ligands tested had very little effect on BALF cellularity. […] FIG. 12 has 3 panels of cell number and type of cells from the bronchoalveolar lavage fluid of asthmatic mice treated acutely or chronically with beta adrenergic ligands. Cells were identified as eosinophils (black bars), macrophages (hatched bars), neutrophils (grey bars), and lymphocytes (white bars) by standard morphologic criteria. At least 200 cells were counted per cytospin preparation, and the absolute number of each cell type was calculated based on the volume of fluid recovered from the lavage. […] Data are expressed as mean ±SEM and are representative of 6-25 animals per group. #P<0.05 compared to NTX, *P<0.05 compared to control (ANOVA).

Another series relates to β2-adrenergic receptor. Kind of series: Immunohistochemistry of β2-adrenergic receptor levels in lungs. It counts as in vivo, mice. Particulars: chronic treatment vs untreated animals.

Several values for one entry are separate records, joined by “and”; a condition that tells them apart may be missing. Identical values can stand only once. Entries after “also recorded” stand apart in the source; their conditions may differ. Like-named read-outs stand apart in the source and are kept apart here.

Procedure for β2-adrenergic receptor: The mice were sacrificed and the lungs excised. […] Lungs were embedded in OCT and 12-μm sections cut with a Tissue-Tek II cryostat. […] After 3 washes in PBS, the slides were blocked with 5% milk in PBS for 1 h, and then incubated overnight with anti-β2-adrenergic receptor antibody (1:200, Santa Cruz Biotechnology) in blocking solution. Slides were washed in PBS and incubated with secondary antibody (1:200, Cy3 goat anti-rabbit, 16 h at 4° C.). […] After washing with PBS, coverslips were mounted and viewed by epifluorescent microscopy.

On to `CC(C)(C)NCC(O)COc1cccc2c1CC(O)C(O)C2` (stereo not shown) [nadolol], for which the “Reason for Maximum Tolerated Dose: Blood Pressure” value with adults with mild asthma [1] (per subject) was 110/68 mm Hg and 91/63 mm Hg. Moreover, the “Reason for Maximum Tolerated Dose: FEV1” value in the series on adults with mild asthma [1] (per subject) is “FEV1 78% predicted; also recorded: FEV1 at 68% predicted”. The “Reason for Maximum Tolerated Dose: Heart Rate” value in the series with adults with mild asthma [1] (per subject) is “Heart Rate 48 bpm”. The “Nadolol Max Tolerated Dose” value in the series on adults with mild asthma [1] (per subject (001-005), once daily oral) was 40 mg (2×) and 20 mg (2×) and 10 mg. For the same molecule, the “Heart Rate Visit 9” value with adults with mild asthma [1] (per subject, on maximum tolerated dose) is 71 bpm and 70 bpm (2×) and 72 bpm and 53 bpm. The “Heart rate at 4 hrs after administration of dose” value is listed as 42 bpm in the series with adults with mild asthma [1] (visit 5) and 48 bpm in the series with adults with mild asthma [1] (visit 6). The “serious adverse events due to study drug administration” value in the series on adults with mild asthma [2] is recorded as “No serious adverse events”. Besides, the “tolerability of the first dose” value with adults with mild asthma [2] was “All subjects tolerated the first 10 mg dose”. The airway hyperresponsiveness result with asthmatic mice [3] (administered acutely) is “worsens airway hyperresponsiveness”; with asthmatic mice [3] (administered chronically), “prevents airway hyperresponsiveness”. The “IL-10 levels in BALF” value is “a reduction was observed” with interleukin 10 (IL-10) (acute treatment, P<0.01 vs S/C) and “statistically significant increases” in the series with interleukin 10 (IL-10) (chronic treatment, P<0.05 vs NS/NC, P<0.001 vs S/C). In addition, the BALF cellularity entry in the series with asthmatic mice [4] (acute treatment (15 minutes)) and in the series with asthmatic mice [4] (chronic treatment (28 days)) was “significant elevations in the number of neutrophils” throughout. Further, the “labeling with anti-β2-adrenergic receptor antibodies in lungs” value in the series with β2-adrenergic receptor is reported as “considerably more intense”.
